Experimental data as given in ChEMBL document CHEMBL1932991, “Novel ATP competitive MK2 inhibitors with potent biochemical and cell-based activity throughout the series” (Bioorg Med Chem Lett, 2012).

Experiments:
THP-1 = assay: Inhibition of LPS-induced TNFalpha production in human THP1 cells pre-incubated for 30 mins prior to LPS-induction measured after 4 hrs by ELISA; type: functional, cell-based
[1] = biological target: T1, MAP kinase-activated protein kinase 2 (Homo sapiens, UniProt P49137); assay: Inhibition of MK2 using Fluo-betaA-11A NeoMPS as substrate pre-incubated for 30 mins before substrate addition measured after 2 hrs by IMAP assay
[2] = biological target: T1, MAP kinase-activated protein kinase 2; assay: Inhibition of MK2-mediated HSP27 phosphorylation in LPS-stimulated human THP1 cells pre-incubated for 60 mins prior to LPS-induction measured after 60 mins by multi-spot assay; type: cell-based, THP-1
PBMC = assay: Inhibition of LPS-induced TNFalpha production in human PBMC pre-incubated for 30 mins prior to LPS-induction measured after 4 hrs by ELISA; type: functional, cell-based
[3] = Dissociation constant, pKa of the compound at pH 7.4; type: physicochemical
[4] = Plasma protein binding in human; type: ADME, cell-free; details: read-out: PPB (converted)
[5] = Permeability of the compound by PAMPA; type: ADME; details: for Papp: read-out: permeability

T1 sequence (P49137 whole entry): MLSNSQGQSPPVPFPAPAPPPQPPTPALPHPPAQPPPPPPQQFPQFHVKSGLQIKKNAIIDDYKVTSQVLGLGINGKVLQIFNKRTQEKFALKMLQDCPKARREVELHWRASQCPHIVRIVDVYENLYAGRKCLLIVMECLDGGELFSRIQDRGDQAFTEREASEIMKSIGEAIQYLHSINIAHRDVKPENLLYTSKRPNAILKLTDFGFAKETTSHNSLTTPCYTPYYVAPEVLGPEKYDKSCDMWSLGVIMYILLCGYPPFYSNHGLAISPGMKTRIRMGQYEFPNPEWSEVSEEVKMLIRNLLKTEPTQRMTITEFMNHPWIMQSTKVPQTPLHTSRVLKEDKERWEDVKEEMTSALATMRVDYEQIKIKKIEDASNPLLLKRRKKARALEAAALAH

SMILES | EC50 (THP-1; Homo sapiens, THP-1) [nM] | EC50 [1] [nM] | EC50 [2] [nM] | EC50 (PBMC; Homo sapiens, PBMC) [nM] | pKa [3] | fraction unbound [4] | Papp [5] [×10⁻⁶ cm/s] | EC50 (THP-1; thp-1) [nM] | EC50 (PBMC; pbmc) [nM] | permeability [5] [nm/s]
Cc1ccc(C(=O)Nc2nccc(-c3cc4c([nH]3)C3(CCNCC3)CNC4=O)n2)cc1C | 3400 | 3.1 |  |  |  |  |  |  |  | 
Cc1ccc(C(=O)Nc2cc(-c3cc4c([nH]3)C3(CCNCC3)CNC4=O)ccn2)cc1C | 230 | 1 | 350 | 890 |  |  |  |  |  | 
O=C(Nc1nccc(-c2cc3c([nH]2)C2(CCNCC2)CNC3=O)n1)c1ccc2ccccc2c1 | 3400 | 5.1 |  |  |  |  |  |  |  | 
O=C(Nc1cc(-c2cc3c([nH]2)C2(CCNCC2)CNC3=O)ccn1)c1ccc2ccccc2c1 | 320 | 0.72 | 280 | 230 | 9.2 | 0.003 |  |  |  | 
O=C1NCC2(CCNCC2)c2[nH]c(-c3ccnc(NC(=O)c4cccc5ccccc45)n3)cc21 | > 10000 | 14 |  |  |  |  |  |  |  | 
O=C1NCC2(CCNCC2)c2[nH]c(-c3ccnc(NC(=O)c4cccc5ccccc45)c3)cc21 | 490 | 0.96 | 520 | 650 |  |  |  |  |  | 
O=C(Nc1nccc(-c2cc3c([nH]2)C2(CCNCC2)CNC3=O)n1)c1ccc(F)cc1 | 7900 | 15 |  |  |  |  |  |  |  | 
O=C(Nc1cc(-c2cc3c([nH]2)C2(CCNCC2)CNC3=O)ccn1)c1ccc(F)cc1 | 1300 | 1.6 | 3700 | 1400 |  |  |  |  |  | 
Cc1ccc(C(=O)Nc2cc(-c3cc4c([nH]3)C3(CCN(C)CC3)CNC4=O)ccn2)cc1C | 720 | 2.3 | 920 |  |  |  |  |  |  | 
CN1CCC2(CC1)CNC(=O)c1cc(-c3ccnc(NC(=O)c4ccc5ccccc5c4)c3)[nH]c12 | 1100 | 2.6 | 730 | 70 | 8.3 | 0.005 |  |  |  | 
O=C(Nc1cc(-c2cc3c([nH]2)C2(CCNCC2)CNC3=O)ccn1)c1cccc(F)c1 | 780 | 1.1 | 680 | 150 |  |  | 0.6 |  |  | 
CN1CCC2(CC1)CNC(=O)c1cc(-c3ccnc(NC(=O)c4cccc(F)c4)c3)[nH]c12 | 540 | 2.5 | 640 | 30 |  |  |  |  |  | 
O=C(Nc1cc(-c2cc3c([nH]2)C2(CCNCC2)CNC3=O)ccn1)c1cccc(OC(F)(F)F)c1 | 80 | 1.5 | 130 | 160 | 9.1 | 0.042 |  |  |  | 
CN1CCC2(CC1)CNC(=O)c1cc(-c3ccnc(NC(=O)c4cccc(OC(F)(F)F)c4)c3)[nH]c12 | 1000 | 2.7 | 830 | 50 | 8.4 | 0.027 |  |  |  | 
O=C(Nc1cc(-c2cc3c([nH]2)C2(CCNCC2)CNC3=O)ccn1)c1ccc(C(F)(F)F)cc1 | 660 | 1.6 | 1300 | 1600 |  |  |  |  |  | 
O=C(Nc1cc(-c2cc3c([nH]2)C2(CCNCC2)CNC3=O)ccn1)c1ccccn1 | 720 | 1.4 | 550 | 260 |  |  |  |  |  | 
O=C(Nc1cc(-c2cc3c([nH]2)C2(CCNCC2)CNC3=O)ccn1)c1ccncc1 | > 10000 | 2.6 | > 10000 | 2600 |  |  |  |  |  | 
Cc1ccc(C(=O)Nc2cc(-c3cc4c([nH]3)C3(CCCNC3)CNC4=O)ccn2)cc1C (racemic) |  | 8.1 | 690 |  |  |  |  | 460 | 40 | 
O=C(Nc1cc(-c2cc3c([nH]2)C2(CCCNC2)CNC3=O)ccn1)c1ccc2ccccc2c1 (racemic) |  | 7.6 | 1100 |  |  |  |  | 780 | 70 | 

SMILES | EC50 (THP-1; Homo sapiens, THP-1) [nM] | EC50 [1] [nM] | EC50 [2] [nM] | EC50 (PBMC; Homo sapiens, PBMC) [nM] | pKa [3] | fraction unbound [4] | Papp [5] [×10⁻⁶ cm/s] | EC50 (THP-1; thp-1) [nM] | EC50 (PBMC; pbmc) [nM] | permeability [5] [nm/s]
O=C1NCC2(CCCNC2)c2[nH]c(-c3ccnc(NC(=O)c4cccc5ccccc45)c3)cc21 (racemic) | 220 | 5.1 | 1100 | 390 |  |  | 0.1 |  |  | 
O=C(Nc1cc(-c2cc3c([nH]2)C2(CCCNC2)CNC3=O)ccn1)c1ccc(F)cc1 (racemic) |  | 8.9 | 870 |  |  |  |  | 320 |  | 5
O=C(Nc1cc(-c2cc3c([nH]2)C2(CCCNC2)CNC3=O)ccn1)c1cccc(F)c1 (racemic) | 560 | 6.2 |  | 30 |  |  | 1.9 |  |  | 
O=C(Nc1cc(-c2cc3c([nH]2)C2(CCCNC2)CNC3=O)ccn1)c1ccc(C(F)(F)F)cc1 (racemic) | 1300 | 9.1 | 1200 | 480 |  |  |  |  |  | 
O=C(Nc1cc(-c2cc3c([nH]2)C2(CCCNC2)CNC3=O)ccn1)c1ccccn1 (racemic) | 480 | 4.2 | 660 | 130 |  |  | 0.2 |  |  | 
O=C(Nc1cc(-c2cc3c([nH]2)C2(CCCNC2)CNC3=O)ccn1)c1cc(F)cc(F)c1 (racemic) | 1100 | 2.5 | 590 | 140 |  |  | 6.3 |  |  | 
O=C(Nc1cc(-c2cc3c([nH]2)C2(CCCNC2)CNC3=O)ccn1)c1cccc(C(F)(F)F)c1 (racemic) | 850 | 3.3 | 590 | 140 |  |  |  |  |  | 
Cc1ccc(C(=O)Nc2cc(-c3cc4c([nH]3)C3(CCNC3)CNC4=O)ccn2)cc1C (racemic) | 340 | 0.71 | 240 | 150 |  |  | 0.2 |  |  | 
O=C(Nc1cc(-c2cc3c([nH]2)C2(CCNC2)CNC3=O)ccn1)c1ccc2ccccc2c1 (racemic) | 1700 | 0.62 | 390 |  | 8.5 | 0.002 |  |  |  | 
O=C(Nc1cc(-c2cc3c([nH]2)C2(CCNC2)CNC3=O)ccn1)c1ccc(F)cc1 (racemic) | 1100 | 1.3 | 840 | 200 |  |  |  |  |  | 
O=C(Nc1cc(-c2cc3c([nH]2)C2(CCNC2)CNC3=O)ccn1)c1cccc(F)c1 (racemic) | 1100 | 1.9 | 480 | 170 |  |  | 0.6 |  |  | 
O=C(Nc1cc(-c2cc3c([nH]2)C2(CCNC2)CNC3=O)ccn1)c1ccccn1 (racemic) | 3900 | 4.1 | 660 |  |  |  |  |  |  | 
O=C(Nc1cc(-c2cc3c([nH]2)C2(CCCNC2)CNC3=O)ccn1)c1ccc2ccccc2c1 (single isomer, unassigned) |  | 129 |  |  | 8.2 | 0.004 |  |  |  | 
O=C(Nc1cc(-c2cc3c([nH]2)C2(CCCNC2)CNC3=O)ccn1)c1ccc(F)cc1 (single isomer, unassigned; isomer 2) |  | 31 | 7400 |  |  |  |  | > 10000 | 1600 | 
O=C(Nc1cc(-c2cc3c([nH]2)C2(CCCNC2)CNC3=O)ccn1)c1ccc2ccccc2c1 (single isomer, unassigned; stereoisomer 1) | 510 | 2.5 | 530 |  |  |  |  |  | 170 | 
Cc1ccc(C(=O)Nc2cc(-c3cc4c([nH]3)C3(CCCNC3)CNC4=O)ccn2)cc1C (single isomer, unassigned; stereoisomer 2) |  | 32 | 5300 |  |  |  | 1 | 8500 | 1200 | 
Cc1ccc(C(=O)Nc2cc(-c3cc4c([nH]3)C3(CCCNC3)CNC4=O)ccn2)cc1C (stereo in doubt; 3dS1) |  | 5.5 |  |  |  |  |  | 650 |  | 
O=C(Nc1cc(-c2cc3c([nH]2)C2(CCCNC2)CNC3=O)ccn1)c1ccc(F)cc1 (stereo in doubt; 6dS1) |  | 2.4 | 320 |  |  |  |  | 310 | 70 | 11
